Entries after “also recorded” stand apart in the source; their conditions may differ. Read-outs that look alike come from different tables or passages of the source.
How the values were obtained:
[1] = intravenous; Ketorolac Tromethamine Injection Prescribing Information; cited from earlier work
[2] = Postoperative opioid analgesic use, IV meloxicam 30 mg vs placebo (Example 4); assay type: in vivo, human; conditions: for reduction in opioid use compared with placebo: 30 mg IV, p<0.05
[3] = Single-dose IV meloxicam pharmacokinetics in elderly subjects with mild renal impairment vs healthy controls (Example 3); assay type: in vivo, human; conditions: single IV dose 30 mg; for AUC(0-6) / AUC(0-t) / AUC(0-inf) / Cmax: iv, 30 mg; for AUC(0-6): AUC0-6 (Mean ± SD), heading: AUC0-6
Procedure: (§1) This study was a single-center, open-label evaluation of the pharmacokinetics and safety, of single doses of meloxicam in elderly subjects with impaired renal function compared with healthy controls. The study enrolled 12 subjects. Eligible subjects were assigned to a study cohort based on their age and renal function. Renal function was assessed using below the equation for estimation of the glomerular filtration rate (GFR).
SCr=serum creatinine measured with a standardized assay.
Enrolled subjects were matched between cohorts according to gender and BMI (±20%).
Enrolled subjects returned to the study center on the day before dosing (Day −1).

[4] = Safety of repeat-dose IV meloxicam 30 mg after major surgery in elderly subjects with impaired renal function (Example 4); conditions: for tolerability: advanced age
[5] = Injection site pain reported after intravenous meloxicam; assay type: in vivo, human; conditions: patients receiving a dose of intravenous meloxicam
[6] = Safety of single IV dose 30 mg meloxicam (Example 3); assay type: in vivo, human
Procedure: as §1, with “(GFR). GFR(mL/min/1.73 m^2)=175×(SCr)^−1.154×(Age)^−0.203×(0.742 if female)×(1.212 if African American)” for “(GFR).”
Enrolled subjects were matched between cohorts according to gender and BMI (±20%). Subjects were assigned to cohorts as follows: • Cohort 1 (n=6; 3 male, 3 female): subjects aged 65 to 80 years with impaired renal function (GFR 60-89 mL/min/1.73 m^2) • Cohort 2 (n=6; 3 male, 3 female): subjects aged 18 to 55 years with normal renal function (GFR≥90 mL/min/1.73 m^2).
Enrolled subjects returned to the study center on the day before dosing (Day −1). During the treatment visit (Day −1 to Day 3), subjects received a single IV dose 30 mg (25 mg/mL) meloxicam. Whole blood samples were collected for pharmacokinetic (PK) analysis prior to dosing and 5, 10, 20, 30, and 45 minutes, and 1, 2, 4, 6, 12, 18, 24, 36, and 48 hours after dosing.
Safety assessments included monitoring of AEs (adverse events), clinical laboratory tests, vital sign measurements, and ECGs. Upon completion of the treatment visit through Hour 48 (Day 3) assessments, the subjects were discharged from the study center.

O=C(c1ccccc1)c1ccc2n1CCC2C(=O)O (stereo not drawn) [ketorolac]
onset of pain relief [1]: up to 30 minutes

Cc1cnc(NC(=O)C2=C(O)c3ccccc3S(=O)(=O)N2C)s1 [meloxicam, 4-hydroxy-2-methyl-N-(5-methyl-2-thiazolyl)-2H-1,2-benzothiazine-3-carboxamide-1,1-dioxide]
reduction in opioid use compared with placebo ([2]; Hour 0-24 interval): 42.8% | reduction in opioid use compared with placebo ([2]; Hour 24-48 interval): 41.9% | statistically significant reductions in opioid use compared with placebo ([2]; during treatment, 30 mg IV daily): up to 42.8% | AUC(0-6) ([3]; both sexes, human, plasma, Cohort 1 (65-80 years, mild renal impairment)): 16100 ± 1700 ng·h/mL | AUC(0-6) ([3]; both sexes, human, plasma, Cohort 2 (18-55 years, normal renal function)): 16300 ± 2170 ng·h/mL | AUC(0-t) ([3]; both sexes, human, plasma, Cohort 1 (65-80 years, mild renal impairment), read-out: AUC0-12 (Mean ± SD)): 26000 ± 2690 ng·h/mL | AUC(0-t) ([3]; both sexes, human, plasma, Cohort 1 (65-80 years, mild renal impairment), read-out: AUC0-24 (Mean ± SD)): 40600 ± 4750 ng·h/mL | AUC(0-t) ([3]; both sexes, human, plasma, Cohort 1 (65-80 years, mild renal impairment), read-out: AUC0-t (Mean ± SD)): 70900 ± 18500 ng·h/mL | AUC(0-inf) ([3]; both sexes, human, plasma, Cohort 1 (65-80 years, mild renal impairment), read-out: AUC0-∞ (Mean ± SD)): 71800 ± 19600 ng·h/mL | AUC(0-t) ([3]; both sexes, human, plasma, Cohort 1 (mild renal impairment), read-out: AUC0-t, Least Square Geometric Mean): 69100 ng·h/mL | AUC(0-inf) ([3]; both sexes, human, plasma, Cohort 1 (mild renal impairment), read-out: AUC0-∞, Least Square Geometric Mean): 69800 ng·h/mL | Cmax ([3]; both sexes, human, plasma, Cohort 1 (mild renal impairment), read-out: Cmax, Least Square Geometric Mean): 5870 ng/mL | Cmax ([3]; both sexes, human, plasma, Cohort 1: aged 65 to 80 years, GFR 60-89 mL/min/1.73 m^2, plasma, read-out: Cmax (Mean ± SD)): 5920 ± 842 ng/mL | AUC(0-t) ([3]; both sexes, human, plasma, Cohort 2 (18-55 years, normal renal function), read-out: AUC0-12 (Mean ± SD)): 26400 ± 3920 ng·h/mL | AUC(0-t) ([3]; both sexes, human, plasma, Cohort 2 (18-55 years, normal renal function), read-out: AUC0-24 (Mean ± SD)): 41000 ± 8670 ng·h/mL | AUC(0-t) ([3]; both sexes, human, plasma, Cohort 2 (18-55 years, normal renal function), read-out: AUC0-t (Mean ± SD)): 67900 ± 22500 ng·h/mL | AUC(0-inf) ([3]; both sexes, human, plasma, Cohort 2 (18-55 years, normal renal function), read-out: AUC0-∞ (Mean ± SD)): 68500 ± 22800 ng·h/mL | AUC(0-t) ([3]; both sexes, human, plasma, Cohort 2 (healthy control), read-out: AUC0-t, Least Square Geometric Mean): 64500 ng·h/mL | AUC(0-inf) ([3]; both sexes, human, plasma, Cohort 2 (healthy control), read-out: AUC0-∞, Least Square Geometric Mean): 65100 ng·h/mL | Cmax ([3]; both sexes, human, plasma, Cohort 2 (healthy control), read-out: Cmax, Least Square Geometric Mean): 5580 ng/mL | Cmax ([3]; both sexes, human, plasma, Cohort 2: aged 18 to 55 years, normal renal function, plasma, read-out: Cmax (Mean ± SD)): 5620 ± 713 ng/mL | Tmax ([3]; both sexes, human, plasma, all subjects (both cohorts)): 4.8 min | AUC0-t, Least Square Geometric Mean Ratio (%) (Cohort 1/Cohort 2) [3]: 107% | AUC0-∞, Least Square Geometric Mean Ratio (%) (Cohort 1/Cohort 2) [3]: 107% | Cmax, Least Square Geometric Mean Ratio (%) (Cohort 1/Cohort 2) [3]: 105% | Tmax, Median (range) ([3]; Cohort 1 (65-80 years, mild renal impairment)): 0.08 (0.08-0.08) h | Tmax, Median (range) ([3]; Cohort 2 (18-55 years, normal renal function)): 0.08 (0.08-0.08) h | intensity of AEs ([4]; 30 mg IV every 24 hours up to 7 doses): generally mild or moderate in intensity | tolerability ([4]; 30 mg IV every 24 hours up to 7 doses after major surgery, impaired renal function): well tolerated | tolerability ([4]; 30 mg IV every 24 hours up to 7 doses after major surgery, impaired renal function, listed as IV meloxicam): well tolerated with no deaths or discontinuations due to an AE | incidence of SAEs ([4]; 30 mg IV every 24 hours up to 7 doses after major surgery, age 66-80 years, impaired renal function): 2.3% | injection site AEs ([4]; 30 mg IV over 15-30 seconds every 24 hours up to 7 doses): no injection site AEs | patients who reported injection site pain [5]: 2% | infusion or infusion site reactions ([6]; 30 mg as an IV infusion over 17-20 seconds): not associated with any infusion, or infusion site, reactions | intensity of AEs ([6]; single IV dose 30 mg): generally mild or moderate in intensity | vital sign or ECG findings ([6]; single IV dose 30 mg): no clinically significant vital sign or ECG (electrocardiogram) findings | incidence of adverse events (subjects with any event) ([6]; single IV dose 30 mg, all 12 subjects): 33.3% | tolerability ([6]; single IV dose 30 mg, healthy subjects and subjects with mild renal impairment): well tolerated with no incidence of death, SAEs (severe adverse events), or discontinuations due to an AE; also recorded: safe and well tolerated

Reference: patent publication US10881663B2, “Method of treating pain in elderly patients with mild renal impairment” (Baudax Bio, Inc., priority 2018, dated 2021)
